Measured values reported in PubChem BioAssay (NCI).
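Results reflect a 48-hour exposure of cells in 96-well plates to compound at five concentrations. GI50 is the concentration that inhibits growth by half. TGI is the concentration that stops growth completely.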

Experiments:
Test in all cases: NCI-60 cell line screen, 48 h
[1] = tested on: OVCAR-8 ovarian
[2] = tested on: UACC-257 melanoma
[3] = tested on: SK-MEL-28 melanoma
[4] = tested on: ACHN renal
[5] = tested on: NCI-H23 lung
[6] = tested on: SR leukemia
[7] = tested on: SK-MEL-5 melanoma
[8] = tested on: U251 CNS
[9] = tested on: RXF 393 renal

For `O=C1OC2(c3ccccc3Oc3ccccc32)c2ccccc21`, the TGI [1] was greater than 100 µM, the TGI [2] was greater than 100 µM and the TGI [3] was greater than 100 µM. The TGI [4] was greater than 100 µM, the TGI [5] was greater than 100 µM and the TGI [6] was greater than 100 µM. The TGI [7] was greater than 100 µM and the TGI [8] was greater than 100 µM.
`O=C(c1ccccc1)c1c(C(=O)c2ccccc2)c(-c2ccccc2)c2c(-c3ccccc3)sc(-c3ccccc3)c2c1-c1ccccc1` was tested, and the TGI [1] was greater than 100 µM, the TGI [2] was greater than 100 µM and the TGI [9] was greater than 100 µM. The TGI [3] was greater than 100 µM, the TGI [4] was greater than 100 µM and the TGI [5] was greater than 100 µM. The TGI [7] was greater than 100 µM and the TGI [8] was greater than 100 µM.
Work on `O=C1C(=O)N(c2ccc(Cl)c(Cl)c2)C(=O)C(=O)C1c1nc2ccccc2o1` yielded a TGI [1] greater than 100 µM, a TGI [2] greater than 100 µM and a TGI [3] greater than 100 µM. For the same compound, the TGI [4] was greater than 100 µM, the TGI [5] was greater than 100 µM and the TGI [6] was 86 µM. For the same compound, the TGI [8] was 85.6 µM.
`COc1ccc2ccc([Se]c3ccc4ccc(OC)cc4c3)cc2c1` gave a TGI [1] of 98.2 µM, a TGI [2] greater than 100 µM and a TGI [9] greater than 100 µM. It also gave a TGI [3] greater than 100 µM, a TGI [4] greater than 100 µM and a TGI [5] greater than 100 µM. For the same compound, the TGI [7] was greater than 100 µM and the TGI [8] was 99.2 µM.
For `CCOC(=O)C(C)c1cc(C2(C)OCCO2)c(C)o1` (stereo not drawn), the TGI [1] was greater than 100 µM, the TGI [9] was greater than 100 µM and the TGI [4] was greater than 100 µM. The TGI [5] was greater than 100 µM, the TGI [7] was greater than 100 µM and the TGI [8] was greater than 100 µM.
In the case of `O=C([CH-]C(=O)c1ccccc1)c1ccccc1.O=C([CH-]C(=O)c1ccccc1)c1ccccc1.[Nd+3].[OH-].[OH3+]`, the GI50 [1] is reported as 4.74 µM, the TGI [1] is reported as 38.4 µM and the GI50 [2] is reported as 15.2 µM. For the same compound, the TGI [2] was 41.9 µM, the GI50 [3] was 11.5 µM and the TGI [3] was 44.8 µM. The GI50 [4] was 10.1 µM, the TGI [4] was 30.1 µM and the GI50 [5] was 3.91 µM. It also gave a TGI [5] of 18.6 µM, a GI50 [7] of 3.94 µM and a TGI [7] of 17.2 µM. The GI50 [8] was 7.13 µM and the TGI [8] was 40.3 µM.
In the case of `CC(C(=O)Oc1ccc2ccccc2c1-c1c(O)ccc2ccccc12)c1ccccc1` (stereo not drawn), the TGI [1] is reported as 50.2 µM, the TGI [2] is reported as 27.6 µM and the TGI [9] is reported as 22.9 µM. The TGI [3] was 29.2 µM, the TGI [4] was 26.6 µM and the TGI [5] was 30.3 µM. For the same compound, the TGI [7] was 26.8 µM and the TGI [8] was 28.7 µM.
Work on `CCOC(=O)C1C(=O)c2ccccc2CN1Cc1ccccc1` (stereo not drawn) yielded a TGI [1] greater than 100 µM, a TGI [2] greater than 100 µM and a TGI [3] greater than 100 µM. For the same compound, the TGI [4] was greater than 100 µM, the TGI [5] was greater than 100 µM and the TGI [6] was greater than 100 µM. For the same compound, the TGI [7] was greater than 100 µM and the TGI [8] was greater than 100 µM.
`c1ccc(N=C2c3ccccc3C3=NCCCN32)cc1` showed a TGI [1] greater than 100 µM, a TGI [2] greater than 100 µM and a TGI [9] greater than 100 µM. For the same compound, the TGI [3] was greater than 100 µM, the TGI [4] was greater than 100 µM and the TGI [5] was greater than 100 µM. It also gave a TGI [7] of 76.8 µM and a TGI [8] greater than 100 µM.
Compound `COC(=O)c1nc(NC#N)[nH]c(=O)c1C` has a TGI [1] greater than 100 µM, a TGI [2] greater than 100 µM and a TGI [9] greater than 100 µM. The TGI [3] was greater than 100 µM, the TGI [4] was greater than 100 µM and the TGI [5] was greater than 100 µM. The TGI [7] was greater than 100 µM and the TGI [8] was greater than 100 µM.
Compound `CC1NOC(=O)C1N=Nc1ccccc1Cl` (stereo not drawn) has a TGI [1] greater than 100 µM, a TGI [2] of 47 µM and a TGI [9] greater than 100 µM. The TGI [3] was greater than 100 µM, the TGI [4] was greater than 100 µM and the TGI [5] was greater than 100 µM. For the same compound, the TGI [7] was 32.9 µM and the TGI [8] was greater than 100 µM.
Work on `O=c1cc2ccccc2nn1-c1ccccc1Cl` yielded a TGI [1] greater than 100 µM, a TGI [2] greater than 100 µM and a TGI [3] greater than 100 µM. For the same compound, the TGI [4] was greater than 100 µM, the TGI [5] was greater than 100 µM and the TGI [7] was greater than 100 µM. For the same compound, the TGI [8] was greater than 100 µM.
With `Cc1c2cc[nH]c(=O)c2cc2c(=O)c3cnccc3[nH]c12` the TGI [1] was greater than 100 µM, the TGI [2] was greater than 100 µM and the TGI [9] was greater than 100 µM. It also gave a TGI [3] greater than 100 µM, a TGI [4] greater than 100 µM and a TGI [5] greater than 100 µM. The TGI [7] was greater than 100 µM and the TGI [8] was greater than 100 µM.
Compound `CC(=O)OCC1OC(n2c(=O)n(-c3ccccc3)c(=O)c3ccccc32)C(OC(C)=O)C(OC(C)=O)C1OC(C)=O` (stereo not drawn) has a TGI [1] greater than 100 µM, a TGI [2] greater than 100 µM and a TGI [9] greater than 100 µM. The TGI [3] was greater than 100 µM, the TGI [4] was greater than 100 µM and the TGI [5] was greater than 100 µM. It also gave a TGI [7] greater than 100 µM and a TGI [8] greater than 100 µM.
`CN(c1ccccc1)C(c1ccccc1)C(O)c1ccccc1` (stereo not drawn) showed a TGI [1] of 36 µM, a TGI [2] of 35.6 µM and a TGI [3] of 41.7 µM. For the same compound, the TGI [4] was 54.4 µM, the TGI [5] was 40.4 µM and the TGI [6] was 49.8 µM. It also gave a TGI [7] of 34.7 µM and a TGI [8] of 33.2 µM.
`COC(=O)C1=C(O)C(O)=C(C(=O)OC)C1` gave a TGI [1] greater than 100 µM, a TGI [2] greater than 100 µM and a TGI [9] greater than 100 µM. It also gave a TGI [3] greater than 100 µM, a TGI [4] greater than 100 µM and a TGI [5] greater than 100 µM. For the same compound, the TGI [7] was greater than 100 µM and the TGI [8] was greater than 100 µM.
With `CCOP(=O)(OCC)/C(C#N)=C/c1ccco1` the TGI [1] was greater than 100 µM, the TGI [2] was greater than 100 µM and the TGI [3] was greater than 100 µM. The TGI [4] was greater than 100 µM, the TGI [5] was greater than 100 µM and the TGI [6] was greater than 100 µM. The TGI [7] was greater than 100 µM and the TGI [8] was greater than 100 µM.
Compound `ON=C1CCC(c2ccccc2)CC1` (stereo not drawn) has a TGI [1] greater than 100 µM, a TGI [2] greater than 100 µM and a TGI [9] greater than 100 µM. The TGI [3] was greater than 100 µM, the TGI [4] was greater than 100 µM and the TGI [5] was greater than 100 µM. The TGI [7] was greater than 100 µM and the TGI [8] was greater than 100 µM.
`CCOC(=O)CC1=CSC2=NCCN12` showed a TGI [1] greater than 100 µM, a TGI [2] greater than 100 µM and a TGI [9] greater than 100 µM. The TGI [3] was greater than 100 µM, the TGI [4] was greater than 100 µM and the TGI [5] was greater than 100 µM. For the same compound, the TGI [7] was greater than 100 µM and the TGI [8] was greater than 100 µM.
Work on `COc1ccc(/C=C2/C[N+](C)(C)C/C(=C/c3ccc(OC)cc3)C2=O)cc1` yielded a TGI [1] greater than 100 µM, a TGI [2] greater than 100 µM and a TGI [9] greater than 100 µM. The TGI [3] was 18.6 µM, the TGI [4] was greater than 100 µM and the TGI [5] was greater than 100 µM. For the same compound, the TGI [7] was greater than 72 µM and the TGI [8] was greater than 63.9 µM.
`CCOC(=O)C(=O)Nc1c(N(CC)CC)n2ccccc2nc1=O` was tested, and the TGI [1] was greater than 100 µM, the TGI [4] was greater than 100 µM and the TGI [5] was greater than 100 µM. The TGI [6] was greater than 100 µM, the TGI [7] was greater than 100 µM and the TGI [8] was greater than 100 µM.
